Values joined by “and” are separate entries in the source; they are usually repeats but may differ in a detail not shown here. Equal entries are not always repeated. Where two headings read alike, the source gives them in different places. Marks after values point to notes of the source that are not given here.
How the values were obtained:
[1] = system: rat tracheal smooth muscle cells (TSMCs); experiment: MTT assay on rat tracheal smooth muscle cells; type: cell-based, Wistar rat; details: for cytotoxicity on rat TSMCs: 0.001 to 100 μM, 24 hours, MTT
Procedure: Tracheal tissue of Wistar rat (200 g to 250 g) was aseptically obtained and connective tissue around the tracheal tissue was removed. […] Supernatant was discarded after centrifugation, and cells were resuspended in 10 ml fresh medium B and cultured on 10 cm cull culture plate to proceed the subsequent experiments. The third to sixth generations of cells were used in the following experiments. Cell concentration was adjusted to 10^4 cells/ml by using a cell counter. Ten thousand cells (1 ml) were inoculated in 24-well culture plate for 24 hours, and cells were attached thereon. Medium B then was added to culture cells for another 24 hours. Subsequently, different concentrations of drugs were added into wells for continuously incubating for 24 hours in low-oxygen incubator. MTT (methylhiazolyldiphenyl-tetrazolium bromide, 100 μl, 5 mg/ml) was added into the wells for darkly reacted for 3 hours at 37° C. Isopropanol of 500 μl was added to solve the […], formazan, after MTT was withdrawn. After 10 minutes, the supernatant ([…]) was transferred to the new 96-well culture plate to determine the absorbance at 540 nm (OD540) and 630 nm (OD630). The effect of drug on cellular growth was evaluated by the value of “OD540-OD630”.

[2] = for Maximum mean plasma concentration of MSC / Minimum mean plasma concentration of MSC: CD-1 (Crl) mice; for Maximum mean plasma concentration of MSC: 2 min
Procedure: These pharmaceutical solutions were vortexed and sonicated to be fully dissolved to accomplish the preparation of drugs for i.v. administration.
Male Sprague-Dawley (SD) rats (body weight: 250˜292 g) and male CD-1 (Crl) mice (body weight: 23˜25 g) were purchased from BioLasco Taiwan Co., Ltd., Taiwan, and male ICR mice (body weight: 23˜25 g) were provided from MDS Pharma Services (King of Prussia, Pa., U.S.A.). […] Rats and mice were fasted at least 16 hours prior to oral administration.
Regarding CD-1 (Crl) mice and ICR mice, blood samples were collected by cardiac puncture post i.v. administration for 0, 2, 5, 15, 30 minutes, 1, 1.5, 2, 4, 6, 9, 24 and 27 hours (a total of 13 sampling time points). Blood samples of mice were collected by cardiac puncture before oral administration. Blood samples of three mice were collected at each time point by cardiac puncture post oral administration for 15, 30 minutes, 1, 1.5, 2, 4, 6, 9, 24 and 27 hours (a total of 11 sampling time points). Blood sample (0.5˜0.7 ml) collected by cardiac puncture was placed in a 1.5-ml Eppendorf microcentrifuge tube containing 5 μl of anti-coagulant heparin sodium (5,000 I.U./ml), followed by centrifugation at 12,000 rpm at 4° C. for 10 minutes. The plasma fraction was transferred to a clean microcentrifuge tube and stored at −70° C.
Plasma sample was mixed with acetonitrile and centrifuged, and the supernatant was injected onto an LC column. The pharmacokinetic parameters were calculated from mean plasma concentration by WinNonlin Standard program (version 3.1, Pharsight Corp.).

[3] = Pharmacokinetic analysis of MSC in male ICR mice (plasma MSC by LC-MS/MS); type: in vivo; details: for Maximum mean plasma concentration of MSC / Minimum mean plasma concentration of MSC / Mean plasma concentration of MSC: ICR mice; for Maximum mean plasma concentration of MSC: 2 min; for Mean plasma concentration of MSC: 2 hours
[4] = Pharmacokinetic analysis of Pulmodil in male SD rats (plasma MSC by LC-MS/MS); type: in vivo, male Sprague-Dawley (SD) rats; details: for Maximum mean plasma concentration of MSC / Minimum mean plasma concentration of MSC / Mean plasma concentration of MSC: SD rats
[5] = Mean plasma concentration of MSC after different dosage forms of Pulmodil in SD rats (3 groups, 8 rats per group); type: in vivo
Text: First, SD rats were divided into 3 groups, 8 rats per group.

[6] = Pulmodil-1 single i.v. 2.0 mg/kg, male CD-1 (Crl) mice
[7] = Pulmodil-1 single oral 20.0 mg/kg, male CD-1 (Crl) mice
[8] = MSC single i.v. 2.0 mg/kg, male ICR mice
[9] = MSC single oral 20.0 mg/kg, male ICR mice
[10] = Pulmodil single i.v. 2.0 mg/kg, male SD rats
[11] = Pulmodil single oral 18.3 mg/kg, male SD rats
[12] = Pulmodil single sublingual 3.4 mg/kg, male SD rats

Cn1c(=O)c2c(ncn2CCN2CCN(c3ccccc3Cl)CC2)n(C)c1=O.O=C(O)CC(O)(CC(=O)O)C(=O)O [Pulmodil-1, 7-[2-[4-(2-chlorobenzene)piperazinyl]ethyl]-1,3-dimethylxanthine.citric acid]
cytotoxicity on rat TSMCs [1]: did not show cytotoxicity | Maximum mean plasma concentration of MSC ([2]; Pulmodil-1 i.v. 2.0 mg/kg, 2 mg/kg): 1425.4 ± 138.2 ng/mL and 1425.4 ng/mL | Minimum mean plasma concentration of MSC ([2]; Pulmodil-1 i.v. 2.0 mg/kg, 2 hr, 2 mg/kg): 2.7 ± 2.2 ng/mL and 2.7 ng/mL | Maximum mean plasma concentration of MSC ([2]; Pulmodil-1 oral 20.0 mg/kg, 20 mg/kg): 683.2 ± 187.5 ng/mL and 683.2 ng/mL | Minimum mean plasma concentration of MSC ([2]; Pulmodil-1 oral 20.0 mg/kg, 4 hr): 11.9 ng/mL | AUC(0-inf) [2, 6]: 371.3 ng·h/mL | Cl [2, 6]: 90 mL/min/kg | Cmax [2, 6]: 1785.0 ng/mL | Vss [2, 6]: 1.4 L/kg | Vz [2, 6]: 2.0 L/kg | t1/2 ([2]; Pulmodil-1 single i.v. 2.0 mg/kg, male CD-1 (Crl) mice, determined between 0.5 and 2 hours): 0.3 h | AUC(0-inf) [2, 7]: 379.3 ng·h/mL | Cmax [2, 7]: 683.0 ng/mL | MAT (MRTPO − MRTIV) [2, 7]: 42 min | Tmax [2, 7]: 18 min | Bioavailability ([2]; Pulmodil-1 single oral 20.0 mg/kg, male CD-1 (Crl) mice, 20 mg/kg): 10% and 10.2% | t1/2 ([2]; Pulmodil-1 single oral 20.0 mg/kg, male CD-1 (Crl) mice, determined between 0.5 to 4 hours): 1.0* hr

Cn1c(=O)c2c(ncn2CCN2CCN(c3ccccc3Cl)CC2)n(C)c1=O [MSC]
cytotoxicity on rat TSMCs [1]: did not show cytotoxicity | Maximum mean plasma concentration of MSC ([3]; MSC i.v. 2.0 mg/kg, 2 mg/kg): 447.76 ± 50.30 ng/mL and 447.76 ng/mL | Minimum mean plasma concentration of MSC ([3]; MSC i.v. 2.0 mg/kg, 24 hr): 0.39 ng/mL | Mean plasma concentration of MSC ([3]; MSC i.v.): 4.82 ± 1.98 ng/mL | Maximum mean plasma concentration of MSC ([3]; MSC oral 20.0 mg/kg, 20 mg/kg): 205.92 ± 56.94 ng/mL and 205.92 ng/mL | Minimum mean plasma concentration of MSC ([3]; MSC oral 20.0 mg/kg, 9 hr, 20 mg/kg): 3.74 ± 1.62 ng/mL and 3.74 ng/mL | Mean plasma concentration of MSC ([3]; MSC oral): 94.26 ± 40.36 ng/mL | AUC(0-inf) [3, 8]: 236.6 ng·h/mL | C(0) [3, 8]: 515.8 ng/mL | Cl [3, 8]: 140.9 mL/min/kg | MRT [3, 8]: 120 min | Vss [3, 8]: 17.2 L/kg | Vz [3, 8]: 79.0 L/kg | t1/2 ([3]; MSC single i.v. 2.0 mg/kg, male ICR mice, determined between 9 and 24 hours): 6.5** hr | AUC(0-inf) [3, 9]: 462.5 ng·h/mL | Bioavailability [3, 9]: 19.5% | MAT (MRTPO − MRTIV) [3, 9]: 48 min | MRT [3, 9]: 168 min | Tmax [3, 9]: 15 min | Cmax ([3]; MSC single oral 20.0 mg/kg, male ICR mice, 20 mg/kg): 205.9 ng/mL | t1/2 ([3]; MSC single oral 20.0 mg/kg, male ICR mice, determined between 4 to 9 hours): 1.2** hr

Cl.Cn1c(=O)c2c(ncn2CCN2CCN(c3ccccc3Cl)CC2)n(C)c1=O [Pulmodil, 7-[2-[4-(2-chlorobenzene)piperazinyl]ethyl]-1,3-dimethylxanthine.HCl]
cytotoxicity on rat TSMCs [1]: did not show cytotoxicity | cell survival rate ([1]; high concentrations (10 and 100 μM), rat TSMCs): ~100% | Maximum mean plasma concentration of MSC ([4]; Pulmodil i.v. 2.0 mg/kg, 2 min, 2 mg/kg): 1263.1 ± 181.4 ng/mL and 1263.1 ng/mL | Minimum mean plasma concentration of MSC ([4]; Pulmodil i.v. 2.0 mg/kg, 6 hr, 2 mg/kg): 0.7 ± 0.3 ng/mL and 0.7 ng/mL | Maximum mean plasma concentration of MSC ([4]; Pulmodil oral 20 mg/kg, 5 min): 1294.1 ng/mL | Minimum mean plasma concentration of MSC ([4]; Pulmodil oral 20 mg/kg, 9 hr): 5.9 ng/mL | Mean plasma concentration of MSC ([4]; Pulmodil oral 20 mg/kg, 24 hr (text: 24- and 27-hour), 20 mg/kg): 0.2 ± 0.1 ng/mL and 0.2 ng/mL | Mean plasma concentration of MSC ([4]; Pulmodil oral 20 mg/kg, within 2 minutes): 879.7 ng/mL | AUC(0-inf) [4, 10]: 608 ng·h/mL | Cl [4, 10]: 51.7 mL/min/kg | MRT [4, 10]: 36 min | Vss [4, 10]: 1.8 L/kg | Vz [4, 10]: 3.4 L/kg | t1/2 [4, 10]: 48 min | AUC(0-inf) [4, 11]: 1142 ng·h/mL | Cmax [4, 11]: 1390 ng/mL | MAT (MRTPO − MRTIV) [4, 11]: 66 min | MRT [4, 11]: 102 min | Tmax [4, 11]: 6 min | t1/2 [4, 11]: 198 min | AUC(0-inf) [4, 12]: 42 ng·h/mL | Bioavailability [4, 12]: 3.7% | Cmax [4, 12]: 27 ng/mL | MAT (MRTSL − MRTIV) [4, 12]: 108 min | MRT [4, 12]: 144 min | Tmax [4, 12]: 6 min | t1/2 [4, 12]: 138 min | Maximum mean plasma concentration of MSC ([4]; Pulmodil sublingual 3.6 mg/kg, 10 min): 25.9 ± 5.5 ng/mL and 25.9 ng/mL | Minimum mean plasma concentration of MSC ([4]; Pulmodil sublingual 3.6 mg/kg, 9 hr): 0.7 ng/mL | Mean plasma concentration of MSC ([4]; Pulmodil sublingual 3.6 mg/kg, within 2 minutes): 22.5 ± 4.1 ng/mL | Bioavailability ([4]; route not stated, given as fraction): 0.2 | highest mean plasma concentration of MSC ([5]; Pulmodil i.v. 2.0 mg/kg, 2 minutes): 1263.12 ± 181.44 ng/mL | highest mean plasma concentration of MSC ([5]; Pulmodil i.v. 2.0 mg/kg, 5 minutes): 1171.077 ± 222.16 ng/mL | highest mean plasma concentration of MSC ([5]; Pulmodil oral 20 mg/kg, 5 minutes): 954.32 ± 332.81 ng/mL | highest mean plasma concentration of MSC ([5]; Pulmodil oral 20 mg/kg, 10 minutes): 806.85 ± 160.05 ng/mL | highest mean plasma concentration of MSC ([5]; Pulmodil sublingual 3.6 mg/kg, 2 minutes): 22.48 ± 4.09 ng/mL | highest mean plasma concentration of MSC ([5]; Pulmodil sublingual 3.6 mg/kg, 30 minutes): 18.24 ± 5.70 ng/mL | Cmax [2, 6]: 1785.0 ng/mL
